# Laboratory results from patent US20160153997A1, “OLIGOPEPTIDE SPECIFIC TO COLORECTAL CANCER CELL AND APPLICATION THEREOF” (National Tsing Hua University, priority 2014, published 2016).
# Values joined by “and” are separate entries in the source; they are usually repeats but may differ in a detail not shown here. Equal entries are not always repeated.
# Legend:
# Assay in all cases: Capturing ability analysis, peptide-bonded magnetic beads mixed with cells
# Assay type in all cases: cell-based
# [1] = system: human breast cancer cells (MCF7); settings: human breast cancer cell (MCF7); 2×10^5 cells, room temperature, 25 rpm 30 minutes
# Text: (§1) In one embodiment, the peptide sequences of Seq ID: NO. 1 to Seq ID: NO. 3 are respectively bonded to the beads and mixed with different cell lines , respectively, including colorectal cancer cells (HCT-8), colorectal cancer stem cells (CR-CSC), human hepatoma cells (HepG2), human in situ pancreatic cancer cells (BxPC-3), human lung adenocarcinoma cells (A549) and human breast cancer cells (MCF7). Wherein, the beads having peptide sequences are mixed with each cell line at room temperature for 25 rpm 30 minutes, and the cell number of each cell line is 2×10^5. After washing for several times, the number of cells captured with magnetic beads having the above peptide sequences are calculated and the results are shown as Table 1 below.
# [2] = system: colorectal cancer cells (HCT-8); settings: colorectal cancer cell (HCT-8); 2×10^5 cells, room temperature, 25 rpm 30 minutes
# Text: as §1
# [3] = system: colorectal cancer stem cells (CR-CSC); settings: colorectal cancer stem cell (CR-CSC); 2×10^5 cells, room temperature, 25 rpm 30 minutes
# Text: as §1
# [4] = system: human in situ pancreatic cancer cells (BxPC-3); settings: human in situ pancreatic cancer cell (BxPC-3); 2×10^5 cells, room temperature, 25 rpm 30 minutes
# Text: as §1
# [5] = system: human lung adenocarcinoma cells (A549); settings: human lung adenocarcinoma cell (A549); 2×10^5 cells, room temperature, 25 rpm 30 minutes
# Text: as §1
# [6] = system: human hepatoma cells (HepG2); settings: human hepatoma cell (HepG2); 2×10^5 cells, room temperature, 25 rpm 30 minutes
# Text: as §1
Substance,Capturing ability (%) [1],Capturing ability (%) [2],Capturing ability (%) [3],Capturing ability (%) [4],Capturing ability (%) [5],Capturing ability (%) [6]
"Seq ID: NO. 2: peptide sequence screened from M13 phage display peptide library, having binding specificity and affinity to HCT-8 or CR-CSC (GAISFDHVHP)",20.45 ± 4.04%,45.16% and 45.16 ± 7.12%,20.85 ± 0.61%,3.13 ± 0.62%,34.29 ± 5.22%,23.02 ± 2.77%
"Seq ID: NO. 1: peptide sequence screened from M13 phage display peptide library, having binding specificity and affinity to HCT-8 or CR-CSC (AELAKLPLF)",12.84 ± 7.67%,43.30% and 43.40 ± 7.23%,22.97 ± 4.29%,3.41 ± 1.14%,28.51 ± 7.09%,23.60 ± 3.50%
"Seq ID: NO. 3: peptide sequence screened from M13 phage display peptide library, having binding specificity and affinity to HCT-8 or CR-CSC (MNAKWPIENLMN)",10.68 ± 5.08%,9.42 ± 2.67%,49.79% and 49.79 ± 5.34%,3.58 ± 1.18%,16.77 ± 6.49%,17.87 ± 6.18%
